From the supplement of paper PMC10307832

How the values were obtained:
Test in all cases: relative viability (nuclei count vs DMSO), 5 days (fraction); higher = more cells survive
AZD6482 = compound: Cc1cc([C@@H](C)Nc2ccccc2C(=O)O)c2nc(N3CCOCC3)cc(=O)n2c1 [AZD6482]
Outline: (§1)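 Viability was defined as treated-well nuclei divided by vehicle-well nuclei, with the median taken over replicate plates. Cells from lung cancer lines sat overnight at 37 °C in 1536-well plates, received five √10-spaced library-drug doses by pinning on vehicle-anchored plates, and grew 5 days without medium change before one-step fixation, permeabilisation and Hoechst staining, 4× imaging and MetaXpress nuclear counts. Only plates with control CV under 25% and at least one doubling were kept.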

[1] = compound: COc1cc2nc(N3CCCN(C)CC3)nc(NC3CCN(Cc4ccccc4)CC3)c2cc1OC
Outline: as §1

AZD6482 + Pemetrexed = compound: Cc1cc([C@@H](C)Nc2ccccc2C(=O)O)c2nc(N3CCOCC3)cc(=O)n2c1 [AZD6482] + Nc1nc2[nH]cc(CCc3ccc(C(=O)N[C@@H](CCC(=O)O)C(=O)O)cc3)c2c(=O)[nH]1 [Pemetrexed] (partner 0.2 µM)
Outline: (§2)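 Relative viability divides the nuclei count in treated wells by that in vehicle wells. Lung cancer cell lines were seeded in 1536-well plates, dosed by pin tool the next day, and fixed and stained after 5 days in one step with final 0.05% Triton X-100, 1% formaldehyde and 1 ug/ml Hoechst. Dosing was a single drug or a fixed anchor-drug dose plus five library-drug doses (not always all listed) in √10 steps, and values are medians of duplicate plates imaged at 4×.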

[2] = compound: COc1cc2nc(N3CCCN(C)CC3)nc(NC3CCN(Cc4ccccc4)CC3)c2cc1OC + COc1cccc2cc(-c3nc([C@H]4CC[C@H](C(=O)O)CC4)n4ncnc(N)c34)[nH]c12 [OSI-027] (partner 0.5 µM)
Outline: as §2

Row | Cell Line | relative viability (AZD6482; 0.08 µM) | relative viability (AZD6482; 0.253 µM) | relative viability (AZD6482; 0.8 µM) | relative viability (AZD6482; 2.53 µM) | relative viability (AZD6482; 8 µM) | relative viability ([1]; 0.2 µM) | relative viability ([1]; 0.6325 µM) | relative viability ([1]; 2 µM) | relative viability ([1]; 6.325 µM) | relative viability (AZD6482 + Pemetrexed; first compound 0.08 µM) | relative viability (AZD6482 + Pemetrexed; first compound 0.253 µM) | relative viability (AZD6482 + Pemetrexed; first compound 0.8 µM) | relative viability (AZD6482 + Pemetrexed; first compound 2.53 µM) | relative viability (AZD6482 + Pemetrexed; first compound 8 µM) | relative viability ([2]; first compound 0.2 µM) | relative viability ([2]; first compound 0.6325 µM) | relative viability ([2]; first compound 2 µM) | relative viability ([2]; first compound 6.325 µM)
1 | HCC-366 | 0.975 | 0.979 | 0.996 | 0.885 | 0.827 | 1.01 | 1.03 | 0.968 | 1.01 | 0.173 | 0.202 | 0.204 | 0.209 | 0.275 | 0.92 | 0.944 | 0.398 | 0.747
2 | HCC-827 | 0.979 | 1.02 | 1.02 | 0.854 | 0.918 | 1.05 | 1.04 | 1 | 1.01 | 0.251 | 0.254 | 0.245 | 0.245 | 0.238 | 0.761 | 0.793 | 0.687 | 0.781
3 | HOP-62 | 1.11 | 1.1 | 1.09 | 0.833 | 1.01 | 0.965 | 0.954 | 1.1 | 0.96 | 0.335 | 0.386 | 0.363 | 0.335 | 0.379 | 0.812 | 0.845 | 0.826 | 0.819
4 | IA-LM | 0.979 | 0.99 | 1.03 |  | 0.842 | 0.941 | 0.865 | 1.08 | 0.862 |  |  |  |  |  |  |  |  | 
5 | LC-2-ad | 0.982 | 0.891 | 1.07 | 0.658 | 0.693 | 0.929 | 1.05 | 1.09 | 0.955 | 0.279 | 0.293 | 0.274 | 0.302 | 0.292 | 0.849 | 0.841 | 0.83 | 0.761
6 | LCLC-97TM1 | 1.03 | 0.865 | 0.855 |  | 0.836 | 0.936 | 0.996 | 1.09 | 0.947 | 0.15 | 0.166 | 0.164 |  | 0.162 | 0.569 | 0.621 | 0.674 | 0.537
7 | LCLC-103H | 0.875 | 1.04 | 0.948 | 0.655 | 0.575 | 0.992 | 1.03 | 1.1 | 0.978 | 0.491 | 0.506 | 0.49 | 0.462 | 0.456 | 0.454 | 0.564 | 0.537 | 0.449
8 | LK-2 | 1.07 | 0.915 | 1.07 | 0.818 | 0.781 | 1 | 1.09 | 1.06 | 0.995 | 0.276 | 0.276 | 0.263 | 0.193 | 0.176 | 0.197 | 0.221 | 0.196 | 0.214
9 | LOU-NH91 | 0.852 | 0.918 | 0.959 | 0.61 | 0.744 | 0.96 | 1.13 | 0.838 | 0.983 | 0.376 | 0.373 | 0.444 | 0.521 | 0.493 | 0.75 | 0.761 | 0.625 | 0.74
10 | LU99A | 0.915 | 0.894 | 1.04 | 0.797 | 0.948 | 0.868 | 0.838 | 1.03 | 0.885 | 0.187 | 0.2 | 0.158 | 0.17 | 0.172 | 0.319 | 0.292 | 0.26 | 0.278
11 | LXF-289 | 1.01 | 1.07 | 1.06 | 0.93 | 0.973 | 0.99 | 0.993 | 1.04 | 1 | 0.678 | 0.94 | 1.08 | 0.849 | 0.922 | 0.696 | 0.761 | 0.791 | 0.768
12 | NCI-H23 | 0.967 | 0.861 | 1 | 0.61 | 0.624 | 0.975 | 0.962 | 1.05 | 0.927 | 0.651 | 0.484 | 0.715 | 0.375 | 0.43 | 0.637 | 0.578 | 0.707 | 0.503
13 | NCI-H322M | 0.847 | 0.822 | 0.838 | 0.495 | 0.633 | 0.856 | 1.09 | 0.9 | 0.854 | 0.572 | 0.61 | 0.62 | 0.49 | 0.498 | 0.546 | 0.504 | 0.595 | 0.423
14 | NCI-H358 | 0.856 | 0.86 | 0.92 | 0.468 | 0.489 | 0.918 | 1.03 | 0.939 | 0.684 | 0.16 | 0.174 | 0.164 | 0.154 | 0.145 | 0.734 | 0.831 | 0.845 | 0.626
15 | NCI-H441 | 1.01 | 0.896 | 1.22 |  | 1.02 | 0.985 | 0.825 | 1.03 | 0.81 | 0.261 | 0.267 | 0.276 |  | 0.282 | 0.576 | 0.521 | 0.573 | 0.591
16 | NCI-H460 | 0.963 | 0.969 | 1.01 | 0.846 | 0.822 | 0.997 | 1.01 | 0.992 | 0.978 | 0.0644 | 0.0667 | 0.0599 | 0.0555 | 0.0589 | 0.669 | 0.674 | 0.565 | 0.63
17 | NCI-H727 | 0.877 | 0.789 | 0.945 | 0.58 | 0.833 | 0.834 | 0.867 | 0.826 | 0.783 |  |  |  |  |  | 0.511 | 0.68 | 0.535 | 0.565
18 | NCI-H1299 | 0.998 | 1.07 | 1.14 | 0.914 | 1.02 | 0.984 | 1.03 | 1.06 | 0.97 |  |  |  |  |  |  |  |  | 
19 | NCI-H1623 | 0.899 | 0.947 | 0.955 | 0.76 | 0.632 | 0.933 | 0.965 | 0.979 | 0.966 |  |  |  |  |  | 0.443 | 0.472 | 0.444 | 0.444
20 | NCI-H1703 | 0.861 | 0.797 | 0.676 | 0.332 | 0.414 | 1.09 | 0.789 | 0.975 | 0.571 |  |  |  |  |  |  |  |  | 
